In US20210040111A1, “DRUGS TO TREAT OCULAR DISORDERS” (Graybug Vision, Inc., priority 2018, published 2021):
In brackets after ≈: the same amount, converted by molar mass. Read-outs that look alike come from different tables or passages of the source.

How the values were obtained:
[1] = Determination of prodrug solubility (50 mg/mL target, HPLC of supernatant); type: physicochemical; settings: thermodynamic from solid
Protocol: For each test, approximately 5-10 mg was transferred to a 10 mL glass vial. Aqueous or organic solvent was added to each vial to achieve an overall concentration of 50 mg/mL. After vortexing aggressively for 2-3 minutes and sonicating in a bath sonicator for 5 minutes, undissolved drug was spun down at 1200×g for 5 minutes to generate a pellet. The supernatant was collected and filtered through a 0.2 μm nylon syringe filter into HPLC vials for drug content analysis. Drug concentration was determined by comparing against a standard calibration curve.

African green monkeys = settings: monkey, in vivo
[2] = DMSO, organic solvent or mixture, read-out: Solubility DMSO
[3] = organic solvent or mixture, DCM (dichloromethane), read-out: Solubility DCM
[4] = water, read-out: Solubility Water

Compound: CCCCNc1cc(C(=O)O)cc(S(N)(=O)=O)c1Oc1ccccc1 [Bumetanide, reference compound]
- solubility [1, 2]: 25 mg/mL (≈ 68.6 mM)
- solubility [1, 3]: 25 mg/mL (≈ 68.6 mM)
- solubility [1, 4]: < 0.1 mg/mL
- Ocular toxicity findings (African green monkeys): No ocular toxicity findings

Compound: CCOC(=O)[C@H](C)OC(=O)[C@H](C)OC(=O)[C@H](C)OC(=O)[C@H](C)OC(=O)c1cc(S(N)(=O)=O)c(Cl)cc1NCc1ccco1 [Compd 1, furosemide-ethyl-PLA (n=4)]
- solubility [1, 2]: > 100 mg/mL
- solubility [1, 3]: > 50 mg/mL
- solubility [1, 4]: < 0.1 mg/mL

Compound: CCCCNc1cc(C(=O)O[C@@H](C)C(=O)O[C@@H](C)C(=O)O[C@@H](C)C(=O)O[C@@H](C)C(=O)OCC)cc(S(N)(=O)=O)c1Oc1ccccc1 [Compound 2, bumetanide-ethyl-PLA (n=4)]
- solubility [1, 2]: > 100 mg/mL
- solubility [1, 3]: > 50 mg/mL
- solubility [1, 4]: < 0.1 mg/mL

Compound: CCOC(=O)[C@H](C)OC(=O)[C@H](C)OC(=O)[C@H](C)OC(=O)[C@H](C)OC(=O)[C@H](C)OC(=O)[C@H](C)OC(=O)c1cc(S(N)(=O)=O)c(Cl)cc1NCc1ccco1 [Compound 5, furosemide-ethyl-PLA (n=6)]
- solubility [1, 2]: > 100 mg/mL
- solubility [1, 3]: > 50 mg/mL
- solubility [1, 4]: < 0.1 mg/mL
